In the supplement of paper PMC10307832:

Legend:
Assay in all cases: relative viability (nuclei count vs DMSO), 5 days (fraction); higher = more cells survive
[1] = tested on: BEN
In short: (§1)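 Lung cancer cell lines in 1536-well plates were dosed by pin tool the day after seeding, either with one drug alone or with a fixed anchor-drug dose plus five library-drug doses (not always all listed) in √10 steps. After 5 days, cells were fixed and their nuclei stained in one step (final 0.05% Triton X-100, 1% formaldehyde, 1 ug/ml Hoechst), then counted on 4× images. Relative viability is the nuclei count in treated wells divided by that in vehicle wells. Values are medians of duplicate plates.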

[2] = tested on: HCC-78
In short: as §1

[3] = tested on: SK-MES-1
In short: as §1

[4] = tested on: NCI-H1734
In short: as §1

[5] = tested on: A-427
In short: as §1

[6] = tested on: NCI-H3122
In short: as §1

[7] = tested on: NCI-H1395
In short: as §1

[8] = tested on: NCI-H1650
In short: as §1

[9] = tested on: HOP-62
In short: as §1

[10] = tested on: LC-2-ad
In short: as §1

[11] = tested on: NCI-H2087
In short: as §1

[12] = tested on: NCI-H2023
In short: as §1

[13] = tested on: LOU-NH91
In short: as §1

[14] = tested on: COR-L 105
In short: as §1

[15] = tested on: LXF-289
In short: as §1

[16] = tested on: EKVX
In short: as §1

[17] = tested on: NCI-H596
In short: as §1

[18] = tested on: HARA
In short: as §1

[19] = tested on: HCC-44
In short: as §1

In the case of `COCC1(CO)C(=O)C2CCN1CC2` (configuration not stated) [PRIMA-1MET] + CC1(C)CCC(c2ccc(Cl)cc2)=C(CN2CCN(c3ccc(C(=O)NS(=O)(=O)c4ccc(N[C@H](CCN5CCOCC5)CSc5ccccc5)c(S(=O)(=O)C(F)(F)F)c4)cc3)CC2)C1 [Navitoclax] (partner 0.5 µM), the relative viability ([1]; first compound 0.2 µM) is reported as 0.0631, the relative viability ([1]; first compound 0.6325 µM) is reported as 0.0967 and the relative viability ([1]; first compound 6.325 µM) is reported as 0.0571. It also gave a relative viability ([1]; first compound 20 µM) of 0.0562, a relative viability ([2]; first compound 0.2 µM) of 0.876 and a relative viability ([2]; first compound 0.6325 µM) of 0.77. It also gave a relative viability ([2]; first compound 6.325 µM) of 0.787, a relative viability ([2]; first compound 20 µM) of 0.0496 and a relative viability ([3]; first compound 0.2 µM) of 1.2. The relative viability ([3]; first compound 0.6325 µM) was 1.28, the relative viability ([3]; first compound 2 µM) was 1.19 and the relative viability ([3]; first compound 6.325 µM) was 1.27. It also gave a relative viability ([3]; first compound 20 µM) of 1.23, a relative viability ([4]; first compound 0.2 µM) of 0.943 and a relative viability ([4]; first compound 0.6325 µM) of 0.772. For the same compound, the relative viability ([4]; first compound 2 µM) was 0.744, the relative viability ([4]; first compound 6.325 µM) was 0.922 and the relative viability ([4]; first compound 20 µM) was 0.221. For the same compound, the relative viability ([5]; first compound 0.2 µM) was 0.884, the relative viability ([5]; first compound 0.6325 µM) was 0.821 and the relative viability ([5]; first compound 2 µM) was 0.961. The relative viability ([5]; first compound 6.325 µM) was 0.968, the relative viability ([5]; first compound 20 µM) was 1 and the relative viability ([6]; first compound 0.2 µM) was 0.926. It also gave a relative viability ([6]; first compound 0.6325 µM) of 1.02, a relative viability ([6]; first compound 2 µM) of 1.05 and a relative viability ([6]; first compound 6.325 µM) of 1.01. The relative viability ([6]; first compound 20 µM) was 0.976, the relative viability ([7]; first compound 0.2 µM) was 1.17 and the relative viability ([7]; first compound 0.6325 µM) was 1.49. The relative viability ([7]; first compound 2 µM) was 1.02, the relative viability ([7]; first compound 6.325 µM) was 1.24 and the relative viability ([7]; first compound 20 µM) was 0.44. For the same compound, the relative viability ([8]; first compound 0.2 µM) was 1.39, the relative viability ([8]; first compound 0.6325 µM) was 1.14 and the relative viability ([8]; first compound 2 µM) was 1.32. It also gave a relative viability ([8]; first compound 6.325 µM) of 1.33, a relative viability ([8]; first compound 20 µM) of 0.888 and a relative viability ([9]; first compound 0.2 µM) of 1.44. It also gave a relative viability ([9]; first compound 0.6325 µM) of 1.01, a relative viability ([9]; first compound 2 µM) of 0.94 and a relative viability ([9]; first compound 6.325 µM) of 0.962. For the same compound, the relative viability ([9]; first compound 20 µM) was 0.839, the relative viability ([10]; first compound 0.2 µM) was 0.483 and the relative viability ([10]; first compound 0.6325 µM) was 0.375. The relative viability ([10]; first compound 2 µM) was 0.511, the relative viability ([10]; first compound 6.325 µM) was 0.39 and the relative viability ([10]; first compound 20 µM) was 0.217. The relative viability ([11]; first compound 0.2 µM) was 1.03, the relative viability ([11]; first compound 0.6325 µM) was 0.901 and the relative viability ([11]; first compound 2 µM) was 1.22. For the same compound, the relative viability ([11]; first compound 6.325 µM) was 1.2, the relative viability ([11]; first compound 20 µM) was 0.842 and the relative viability ([12]; first compound 0.2 µM) was 1.04. The relative viability ([12]; first compound 0.6325 µM) was 0.999, the relative viability ([12]; first compound 2 µM) was 0.992 and the relative viability ([12]; first compound 6.325 µM) was 1.07. It also gave a relative viability ([12]; first compound 20 µM) of 0.977, a relative viability ([13]; first compound 0.2 µM) of 0.729 and a relative viability ([13]; first compound 0.6325 µM) of 0.677. It also gave a relative viability ([13]; first compound 2 µM) of 0.589, a relative viability ([13]; first compound 6.325 µM) of 0.601 and a relative viability ([13]; first compound 20 µM) of 0.383. The relative viability ([14]; first compound 0.2 µM) was 0.826, the relative viability ([14]; first compound 0.6325 µM) was 0.513 and the relative viability ([14]; first compound 2 µM) was 0.761. For the same compound, the relative viability ([14]; first compound 6.325 µM) was 0.671, the relative viability ([14]; first compound 20 µM) was 0.211 and the relative viability ([15]; first compound 0.2 µM) was 0.966. For the same compound, the relative viability ([15]; first compound 0.6325 µM) was 0.956, the relative viability ([15]; first compound 2 µM) was 0.93 and the relative viability ([15]; first compound 6.325 µM) was 0.986. It also gave a relative viability ([15]; first compound 20 µM) of 0.903, a relative viability ([16]; first compound 0.2 µM) of 1.03 and a relative viability ([16]; first compound 0.6325 µM) of 0.621. The relative viability ([16]; first compound 2 µM) was 0.71, the relative viability ([16]; first compound 6.325 µM) was 0.938 and the relative viability ([16]; first compound 20 µM) was 0.777. For the same compound, the relative viability ([17]; first compound 0.2 µM) was 1, the relative viability ([17]; first compound 0.6325 µM) was 0.797 and the relative viability ([17]; first compound 2 µM) was 1.01. The relative viability ([17]; first compound 6.325 µM) was 1.08, the relative viability ([17]; first compound 20 µM) was 0.982 and the relative viability ([18]; first compound 0.2 µM) was 1.22. The relative viability ([18]; first compound 0.6325 µM) was 1.02, the relative viability ([18]; first compound 6.325 µM) was 1.13 and the relative viability ([18]; first compound 20 µM) was 1.11. It also gave a relative viability ([19]; first compound 0.2 µM) of 1.05, a relative viability ([19]; first compound 0.6325 µM) of 0.689 and a relative viability ([19]; first compound 2 µM) of 0.916. It also gave a relative viability ([19]; first compound 6.325 µM) of 1.03 and a relative viability ([19]; first compound 20 µM) of 0.931.
